Measurements as given in patent US10183013B2, “Cyclic sulfonamide containing derivatives as inhibitors of hedgehog signaling pathway” (NantBioScience, Inc., priority 2012, dated 2019).
pEC50: −log10 of the molar value.

Tested on: Hedgehog signalling (Gli-bla NIH3T3 cells, mShh stimulated)
Test: Hedgehog signalling inhibition assay (Gli-Bla reporter assay in NIH 3T3 cells); also: mShh 400 ng/ml
Assay type: cell-based
Settings: Mus musculus, NIH3T3, 24 h; read-out: EC50
Description: Hedgehog signalling inhibition assays. The following table 2 represents the average EC50 values for particular compounds of the inventions. Gli-bla NIH3T3 cells (7500 cells/well) were plated the day prior to the assay in a 384-well and 96-format in complete growth medium. […] Cells were stimulated with mShh for 24 hours and then loaded with LiveBLAzer™-FRET B/G Substrate for 3 hours. Emission values at 460 nm and 530 nm were obtained using a standard fluorescence plate reader and the 460/530 Ratios plotted for each treatment (n=4 for each data point).
J. Cancer, 2011, 30(7):472-81).

`O=C(Nc1ccc(Cl)c(-c2ccccn2)c1)c1ccc(N2CCCS2(=O)=O)cc1` [Example 84] was tested, and the pEC50 was greater than 8.00.

In the case of `O=C(Nc1ccc(Cl)c(-c2ccccn2)c1)c1ccc(N2CCOCS2(=O)=O)cc1Cl` [Example 85, 2-chloro-N-(4-chloro-3-(pyridin-2-yl)phenyl)-4-(3,3-dioxido-1,3,4-oxathiazinan-4-yl)benzamide], the pEC50 was greater than 8.00.

`O=C(Nc1ccc(Cl)c(-c2nccc3ccccc23)c1)c1ccc(N2CCCS2(=O)=O)cc1` [Example 86] showed a pEC50 of 4.55.

Work on `O=C(Nc1ccc(Cl)c(-c2ccc3ccccc3n2)c1)c1ccc(N2CCCS2(=O)=O)cc1` [Example 87] yielded a pEC50 of 5.52.

For `O=C(Nc1ccc(Cl)c(-c2ccc3ncccc3n2)c1)c1ccc(N2CCCS2(=O)=O)cc1` [Example 88], the pEC50 was 5.00.

`O=C(Nc1ccc(Cl)c(-c2ncc3ccccc3n2)c1)c1ccc(N2CCCS2(=O)=O)cc1` [Example 89] was tested, and the pEC50 was 4.85.

For `O=C(Nc1ccc(Cl)c(-c2ccc3cnccc3n2)c1)c1ccc(N2CCCS2(=O)=O)cc1` [Example 90], the pEC50 was 4.92.

Work on `O=C(Nc1ccc(Cl)c(-c2ccc3ccccc3n2)c1)c1ccc(N2CCCCS2(=O)=O)cc1` [Example 93] yielded a pEC50 greater than 8.00.

In the case of `O=C(Nc1ccc(Cl)c(-c2nccc3ccccc23)c1)c1ccc(N2CCCCS2(=O)=O)cc1` [Example 94], the pEC50 was greater than 8.00.

In the case of `O=C(Nc1ccc(Cl)c(-c2ncc3ccccc3n2)c1)c1ccc(N2CCCCS2(=O)=O)cc1` [Example 95], the pEC50 was greater than 8.00.

For `O=C(Nc1ccc(Cl)c(-c2ccc3cnccc3n2)c1)c1ccc(N2CCCCS2(=O)=O)cc1` [Example 96], the pEC50 was greater than 8.00.

`O=C(Nc1ccc(Cl)c(-c2ccc3ncccc3n2)c1)c1ccc(N2CCCCS2(=O)=O)cc1` [Example 97] was tested, and the pEC50 was greater than 8.00.

`O=C(Nc1ccc(Cl)c(-c2nccc3ccccc23)c1)c1ccc(N2CCCCS2(=O)=O)cc1Cl` [Example 98] showed a pEC50 greater than 8.00.

Work on `O=C(Nc1ccc(Cl)c(-c2ccc3ccccc3n2)c1)c1ccc(N2CCCCS2(=O)=O)cc1Cl` [Example 99] yielded a pEC50 greater than 8.00.

Work on `O=C(Nc1ccc(Cl)c(-c2ncc3ccccc3n2)c1)c1ccc(N2CCCCS2(=O)=O)cc1Cl` [Example 100] yielded a pEC50 greater than 8.00.

In the case of `O=C(Nc1ccc(Cl)c(-c2ccc3cnccc3n2)c1)c1ccc(N2CCCCS2(=O)=O)cc1Cl` [Example 101], the pEC50 was greater than 8.00.

For `O=C(Nc1ccc(Cl)c(-c2ccc3ncccc3n2)c1)c1ccc(N2CCCCS2(=O)=O)cc1Cl` [Example 102], the pEC50 was greater than 8.00.

`O=C(Nc1ccc(Cl)c(-c2nccc3ncccc23)c1)c1ccc(N2CCCCS2(=O)=O)cc1Cl` [Example 103] showed a pEC50 greater than 8.00.

`O=C(Nc1ccc(Cl)c(-c2nccc3ccccc23)c1)c1ccc(N2CCOCS2(=O)=O)cc1Cl` [Example 104, 2-chloro-N-(4-chloro-3-(isoquinolin-1-yl)phenyl)-4-(3,3-dioxido-1,3,4-oxathiazinan-4-yl)benzamide] showed a pEC50 greater than 8.00.

`O=C(Nc1ccc(Cl)c(-c2nccc3ncccc23)c1)c1ccc(N2CCOCS2(=O)=O)cc1Cl` [Example 105, 2-chloro-N-(4-chloro-3-(1,6-naphthyridin-5-yl)phenyl)-4-(3,3-dioxido-1,3,4-oxathiazinan-4-yl)benzamide] was tested, and the pEC50 was greater than 8.00.

`O=C(Nc1ccc(Cl)c(-c2ccc3ncccc3n2)c1)c1ccc(N2CCOCS2(=O)=O)cc1Cl` [Example 106, 2-chloro-N-(4-chloro-3-(1,5-naphthyridin-2-yl)phenyl)-4-(3,3-dioxido-1,3,4-oxathiazinan-4-yl)benzamide] was tested, and the pEC50 was greater than 8.00.

For `O=C(Nc1ccc(Cl)c(-c2ccc3cnccc3n2)c1)c1ccc(N2CCOCS2(=O)=O)cc1Cl` [Example 107, 2-chloro-N-(4-chloro-3-(1,6-naphthyridin-2-yl)phenyl)-4-(3,3-dioxido-1,3,4-oxathiazinan-4-yl)benzamide], the pEC50 was greater than 8.00.

`O=C(Nc1ccc(Cl)c(-c2nccc3ccccc23)c1)c1ccc(N2CCOCS2(=O)=O)cc1` [Example 108, N-(4-chloro-3-(isoquinolin-1-yl)phenyl)-4-(3,3-dioxido-1,3,4-oxathiazinan-4-yl)benzamide] was tested, and the pEC50 was 4.96.

`O=C(Nc1ccc(Cl)c(-c2nccc3ncccc23)c1)c1ccc(N2CCOCS2(=O)=O)cc1` [Example 109, N-(4-chloro-3-(1,6-naphthyridin-5-yl)phenyl)-4-(3,3-dioxido-1,3,4-oxathiazinan-4-yl)benzamide] gave a pEC50 greater than 8.00.

For `Cc1ccc(NC(=O)c2ccc(N3CCCS3(=O)=O)cc2Cl)cc1-c1nccc2ccccc12` [Example 111], the pEC50 was greater than 8.00.

With `O=C(Nc1ccc(Cl)c(-c2nccc3ncccc23)c1)c1ccc(N2CCCS2(=O)=O)cc1Cl` [Example 112] the pEC50 was greater than 8.00.

Work on `O=C(Nc1ccc(Cl)c(-c2nccc3ncccc23)c1)c1ccc(N2CCCS2(=O)=O)c(Cl)c1` [Example 113] yielded a pEC50 greater than 8.00.

With `O=C(Nc1ccc(Cl)c(-c2nccc3ccccc23)c1)c1ccc(N2CCCS2(=O)=O)c(Cl)c1` [Example 114] the pEC50 was greater than 8.00.

Work on `O=C(Nc1ccc(Cl)c(-c2nccc3ccccc23)c1)c1ccc(N2CCCCS2(=O)=O)c(Cl)c1` [Example 115] yielded a pEC50 greater than 8.00.

With `O=C(Nc1ccc(Cl)c(-c2nccc3ncccc23)c1)c1ccc(N2CCOCS2(=O)=O)cc1F` [Example 116, N-(4-chloro-3-(1,6-naphthyridin-5-yl)phenyl)-4-(3,3-dioxido-1,3,4-oxathiazinan-4-yl)-2-fluorobenzamide] the pEC50 was greater than 8.00.

With `O=C(Nc1ccc(Cl)c(-c2nccc3ccccc23)c1)c1ccc(N2CCOCS2(=O)=O)cc1F` [Example 117, N-(4-chloro-3-(isoquinolin-1-yl)phenyl)-4-(3,3-dioxido-1,3,4-oxathiazinan-4-yl)-2-fluorobenzamide] the pEC50 was 4.80.

`O=C(Nc1ccc(Cl)c(NC(=O)c2ccccc2)c1)c1ccc(N2CCCS2(=O)=O)c(F)c1` [Example 118] showed a pEC50 greater than 8.00.

In the case of `O=C(Nc1ccc(Cl)c(NC(=O)c2cccnc2)c1)c1ccc(N2CCCS2(=O)=O)c(F)c1` [Example 119], the pEC50 was greater than 8.00.

`O=C(Nc1cc(NC(=O)c2ccc(N3CCCS3(=O)=O)cc2Cl)ccc1Cl)c1cccc(Cl)c1` [Example 120] was tested, and the pEC50 was greater than 8.00.

With `O=C(Nc1ccc(Cl)c(NC(=O)c2cccc(Cl)c2)c1)c1ccc(N2CCCS2(=O)=O)c(F)c1` [Example 121] the pEC50 was greater than 8.00.

`O=C(Nc1cc(NC(=O)c2ccc(N3CCOCS3(=O)=O)cc2Cl)ccc1Cl)c1ccccc1` [Example 122, N-(3-benzamido-4-chlorophenyl)-2-chloro-4-(3,3-dioxido-1,3,4-oxathiazinan-4-yl)benzamide] gave a pEC50 greater than 8.00.

With `O=C(Nc1ccc(Cl)c(-c2ccccn2)c1)c1ccc(N2CCOCS2(=O)=O)cc1F` [Example 123, N-(4-chloro-3-(pyridin-2-yl)phenyl)-4-(3,3-dioxido-1,3,4-oxathiazinan-4-yl)-2-fluorobenzamide] the pEC50 was greater than 8.00.

With `O=C(Nc1cc(NC(=O)c2ccc(N3CCOCS3(=O)=O)cc2F)ccc1Cl)c1ccccc1` [Example 124, N-(3-benzamido-4-chlorophenyl)-4-(3,3-dioxido-1,3,4-oxathiazinan-4-yl)-2-fluorobenzamide] the pEC50 was greater than 8.00.

`O=C(Nc1cc(NC(=O)c2ccc(N3CCOCS3(=O)=O)cc2Cl)ccc1Cl)c1cccc(F)c1` [Example 125, 2-chloro-N-(4-chloro-3-(3-fluorobenzamido)phenyl)-4-(3,3-dioxido-1,3,4-oxathiazinan-4-yl)benzamide] showed a pEC50 greater than 8.00.
